Experimental data: patent US9775831B2, “Combinations comprising biphenyl derivatives for use in the treatment of HCV” (BRISTOL-MYERS SQUIBB COMPANY, priority 2013, dated 2017)
Where two headings read alike, the source gives them in different places.

Tests used:
[1] = tested on: genotype-1a variant with glutamine 30 changed to glutamate in the NS5A protein; conditions: cited from earlier work
[2] = tested on: genotype-1a variant with glutamine 30 changed to glutamate in the NS5A protein; test: HCV replicon cell-based assay, NS5A synergy with BMS-790052; conditions: genotype 1a Q→E variant; test compound titrated in combination with NS5A-targeting compound (BMS-790052 fixed at 200 nM)
Source text: The NS5A synergistic inhibitory effect of test compounds can be determined using various amounts of an NS5A-targeting compound with titration of a second compound of interest. […] In one embodiment, the HCV genotype strain can be genotype 1a containing a change at amino acid 30 of the NS5A protein consisting of glutamine to glutamate. The test compound can be chosen from compounds listed above or from others present in the literature.

[3] = genotype-1a Q30E NS5A variant replicon, compound alone, read-out: EC50, titrated singly

SMILES | Fold Synergistic (1a-QE) [2] | further results
COC(=O)N[C@H](C(=O)N1CCC[C@H]1c1nc(-c2ccc(-c3ccc(-c4c[nH]c([C@@H]5CCCN5C(=O)[C@@H](NC(=O)OC)C(C)C)n4)cc3)cc2)c[nH]1)C(C)C [BMS-790052] |  | reciprocal synergistic inhibitory effect for the combination ([1]; BMS-790052 titrated with P-55 fixed at 200 nM, genotype-1a Q30E variant): ~100 fold; EC50 [1, 3]: ~200 nM; EC50 ([1]; genotype-1a Q30E variant, P-55 fixed at 200 nM, read-out: EC50 of BMS-790052 in the presence of a fixed amount of P-55): ~2 nM
CC(C)CC(=O)N[C@H](c1ncc(-c2ccc(-c3ccc(-c4cnc([C@@H](NC(=O)CC(C)C)C(C)C)[nH]4)cc3)cc2)[nH]1)C(C)C [Example P-55] |  | synergistic inhibitory effect for the combination ([1]; P-55 titrated with BMS-790052 fixed at 200 nM, genotype-1a Q30E variant): > 100 fold; EC50 [1, 3]: > 200 nM; EC50 ([1]; genotype-1a Q30E variant, BMS-790052 fixed at 200 nM, read-out: EC50 of P-55 in the presence of a fixed amount of BMS-790052): ~2 nM
CCO[C@H](CC(=O)NCC(C)C)C(=O)N[C@H](c1ncc(-c2ccc(-c3ccc(-c4cnc([C@@H](NC(=O)[C@@H](CC(=O)NCC(C)C)OCC)C(C)(C)C)[nH]4)cc3)cc2)[nH]1)C(C)(C)C [MD-34] | >100 Fold | 
CC(C)CNC(=O)C[C@H](c1ncc(-c2ccc(-c3ccc(-c4cnc([C@@H](CC(=O)NCC(C)C)C(C)C)[nH]4)cc3)cc2)[nH]1)C(C)C [MD-35] | >10 Fold | 
C[C@H](CC(=O)N1CCOCC1)c1ncc(-c2ccc(-c3ccc(-c4cnc([C@H](C)CC(=O)N5CCOCC5)[nH]4)cc3)cc2)[nH]1 [MD-37] | >10 Fold | 
C[C@H](CC(=O)NC1CCOCC1)c1ncc(-c2ccc(-c3ccc(-c4cnc([C@H](C)CC(=O)NC5CCOCC5)[nH]4)cc3)cc2)[nH]1 [MD-39] | >10 Fold | 
CC(C)[C@H](CC(=O)NCC(C)(C)CO)c1ncc(-c2ccc(-c3ccc(-c4cnc([C@@H](CC(=O)NCC(C)(C)CO)C(C)C)[nH]4)cc3)cc2)[nH]1 [MD-42] | >10 Fold | 
CCCN(CC1CC1)C(=O)C[C@H](c1ncc(-c2ccc(-c3ccc(-c4cnc([C@@H](CC(=O)N(CCC)CC5CC5)C(C)C)[nH]4)cc3)cc2)[nH]1)C(C)C [MD-44] | >10 Fold | 
CCC(CC)CNC(=O)C[C@H](c1ncc(-c2ccc(-c3ccc(-c4cnc([C@@H](CC(=O)NCC(CC)CC)C(C)C)[nH]4)cc3)cc2)[nH]1)C(C)C [MD-45] | >100 Fold | 
CC(C)[C@H](CC(=O)NCC(C)(C)c1ccccc1)c1ncc(-c2ccc(-c3ccc(-c4cnc([C@@H](CC(=O)NCC(C)(C)c5ccccc5)C(C)C)[nH]4)cc3)cc2)[nH]1 [MD-47] | >100 Fold | 
CC(C)NC(=O)CN(C)C(=O)C[C@H](c1ncc(-c2ccc(-c3ccc(-c4cnc([C@@H](CC(=O)N(C)CC(=O)NC(C)C)C(C)C)[nH]4)cc3)cc2)[nH]1)C(C)C [MD-48] | <10 Fold | 
CC(C)[C@H](CC(=O)N(C)CC(C)(C)C)c1ncc(-c2ccc(-c3ccc(-c4cnc([C@@H](CC(=O)N(C)CC(C)(C)C)C(C)C)[nH]4)cc3)cc2)[nH]1 [MD-49] | >10 Fold | 
CC(C)[C@H](CC(=O)N(C)C1CCOCC1)c1ncc(-c2ccc(-c3ccc(-c4cnc([C@@H](CC(=O)N(C)C5CCOCC5)C(C)C)[nH]4)cc3)cc2)[nH]1 [MD-50] | <10 Fold | 
CC(C)[C@H](CC(=O)NCC(C)(C)C(N)=O)c1ncc(-c2ccc(-c3ccc(-c4cnc([C@@H](CC(=O)NCC(C)(C)C(N)=O)C(C)C)[nH]4)cc3)cc2)[nH]1 [MD-51] | >10 Fold | 
CC(C)[C@H](CC(=O)N(Cc1ccccc1)C(C)C)c1ncc(-c2ccc(-c3ccc(-c4cnc([C@@H](CC(=O)N(Cc5ccccc5)C(C)C)C(C)C)[nH]4)cc3)cc2)[nH]1 [MD-52] | >100 Fold | 
CC(C)[C@H](CC(=O)N1CCN(C)C(=O)C1)c1ncc(-c2ccc(-c3ccc(-c4cnc([C@@H](CC(=O)N5CCN(C)C(=O)C5)C(C)C)[nH]4)cc3)cc2)[nH]1 [MD-53] | <10 Fold | 
CC(C)[C@H](CC(=O)NCC1(O)CCC1)c1ncc(-c2ccc(-c3ccc(-c4cnc([C@@H](CC(=O)NCC5(O)CCC5)C(C)C)[nH]4)cc3)cc2)[nH]1 [MD-54] | >10 Fold | 
CCOC(=O)N1CCN(C(=O)C[C@@H](CCC(F)(F)F)c2ncc(-c3ccc(-c4ccc(-c5cnc([C@H](CCC(F)(F)F)CC(=O)N6CCN(C(=O)OCC)CC6)[nH]5)cc4)cc3)[nH]2)CC1 [MD-58] | >10 Fold | 
O=C(C[C@@H](CCC(F)(F)F)c1ncc(-c2ccc(-c3ccc(-c4cnc([C@H](CCC(F)(F)F)CC(=O)NC5CCOCC5)[nH]4)cc3)cc2)[nH]1)NC1CCOCC1 [MD-61] | <10 Fold | 
